In US10766865B2, “PKM2 modulators and methods for their use” (TOLERO PHARMACEUTICALS, INC., priority 2012, dated 2020):
Like-named read-outs stand apart in the source and are kept apart here.

Legend:
[1] = tested on: 786-O; assay: Cell line sensitivity (viability, ATPlite); format: cell-based; settings: Homo sapiens, 786-0, Kidney, BME media, 72 hours, read-out: Sensitivity to Example 1 (IC50)
Protocol: (§1) Viability effect of Example 1 against a subset of lung carcinoma cell lines was determined as follows. Cells were seeded at 1500 cells per well in 384-well plates in BME media, and compound was added in 0.1% DMSO 18 hours later. Viability was determined by ATPlite assay after 72 hours. (See FIG. 4C).
(§2) Example 1 was tested against an expanded panel of cell lines according to the above procedure.

[2] = tested on: A172; assay: Cell line sensitivity (viability, ATPlite); format: cell-based; settings: Homo sapiens, A 172; A172, Brain; BME media, 72 hours; read-out: Sensitivity to Example 1 (IC50)
Protocol: as §1, §2

[3] = tested on: ACHN; assay: Cell line sensitivity (viability, ATPlite); format: cell-based; settings: Homo sapiens, Kidney, BME media, 72 hours, read-out: Sensitivity to Example 1 (IC50)
Protocol: as §1, §2

[4] = tested on: AsPC1; assay: Cell line sensitivity (viability, ATPlite); format: cell-based; settings: Homo sapiens; AsPC1, Pancreatic; BME media, 72 hours; read-out: Sensitivity to Example 1 (IC50)
Protocol: as §1, §2

[5] = tested on: Caki-1; assay: Cell line sensitivity (viability, ATPlite); format: cell-based; settings: Homo sapiens; Caki-1, Kidney; BME media, 72 hours; read-out: Sensitivity to Example 1 (IC50)
Protocol: as §1, §2

[6] = tested on: Capan2; assay: Cell line sensitivity (viability, ATPlite); format: cell-based; settings: Homo sapiens, Capan-2; Capan2, Pancreatic; BME media, 72 hours; read-out: Sensitivity to Example 1 (IC50)
Protocol: as §1, §2

[7] = tested on: Du145; assay: Cell line sensitivity (viability, ATPlite); format: cell-based; settings: Homo sapiens, DU-145; Du145, Prostate; BME media, 72 hours; read-out: Sensitivity to Example 1 (IC50)
Protocol: as §1, §2

[8] = tested on: Gist882; assay: Cell line sensitivity (viability, ATPlite); format: cell-based; settings: Homo sapiens; Gist882, GIST; BME media, 72 hours; read-out: Sensitivity to Example 1 (IC50)
Protocol: as §1, §2

[9] = tested on: H1299; assay: Cell line sensitivity (viability, ATPlite); format: cell-based; settings: Homo sapiens, NCI-H1299; H1299, Lung; BME media, 72 hours; read-out: Sensitivity to Example 1 (IC50)
Protocol: as §1, §2

[10] = tested on: HCT116; assay: Cell line sensitivity (viability, ATPlite); format: cell-based; settings: Homo sapiens, HCT-116; HCT116, Colon; BME media, 72 hours; read-out: Sensitivity to Example 1 (IC50)
Protocol: as §1, §2

[11] = tested on: HepG2; assay: Cell line sensitivity (viability, ATPlite); format: cell-based; settings: Homo sapiens; HepG2, Liver; BME media, 72 hours; read-out: Sensitivity to Example 1 (IC50)
Protocol: as §1, §2

[12] = tested on: Hs766T; assay: Cell line sensitivity (viability, ATPlite); format: cell-based; settings: Pancreatic, BME media, 72 hours, read-out: Sensitivity to Example 1 (IC50)
Protocol: as §1, §2

[13] = tested on: MCF7; assay: Cell line sensitivity (viability, ATPlite); format: cell-based; settings: Homo sapiens; MCF7, Breast; BME media, 72 hours; read-out: Sensitivity to Example 1 (IC50)
Protocol: as §1, §2

[14] = tested on: NCI-H1975; assay: Cell line sensitivity (viability, ATPlite); format: cell-based; settings: Homo sapiens; NCI-H1975, Lung; BME media, 72 hours; read-out: Sensitivity to Example 1 (IC50)
Protocol: as §1, §2

[15] = tested on: NCI-H460; assay: Cell line sensitivity (viability, ATPlite); format: cell-based; settings: Homo sapiens; NCI-H460, Lung; BME media, 72 hours; read-out: Sensitivity to Example 1 (IC50)
Protocol: as §1, §2

[16] = tested on: OVCAR-3; assay: Cell line sensitivity (viability, ATPlite); format: cell-based; settings: Homo sapiens; OVCAR-3, Ovarian; BME media, 72 hours; read-out: Sensitivity to Example 1 (IC50)
Protocol: as §1, §2

[17] = tested on: PC3; assay: Cell line sensitivity (viability, ATPlite); format: cell-based; settings: Homo sapiens, PC-3; PC3, Prostate; BME media, 72 hours; read-out: Sensitivity to Example 1 (IC50)
Protocol: as §1, §2

[18] = tested on: RKO; assay: Cell line sensitivity (viability, ATPlite); format: cell-based; settings: Homo sapiens, Colon, BME media, 72 hours, read-out: Sensitivity to Example 1 (IC50)
Protocol: as §1, §2

[19] = tested on: SW48; assay: Cell line sensitivity (viability, ATPlite); format: cell-based; settings: Homo sapiens; SW48, Colon; BME media, 72 hours; read-out: Sensitivity to Example 1 (IC50)
Protocol: as §1, §2

[20] = tested on: SW620; assay: Cell line sensitivity (viability, ATPlite); format: cell-based; settings: Homo sapiens, SW-620; SW620, Colon; BME media, 72 hours; read-out: Sensitivity to Example 1 (IC50)
Protocol: as §1, §2

[21] = tested on: UMUC-3; assay: Cell line sensitivity (viability, ATPlite); format: cell-based; settings: Homo sapiens, UMUC3; UMUC-3, Bladder; BME media, 72 hours; read-out: Sensitivity to Example 1 (IC50)
Protocol: as §1, §2

[22] = biological target: T1, PKM2 (Homo sapiens, UniProt P14618); assay: PKM2 Biochemical Assay
Target sequence in this assay (P14618 whole entry): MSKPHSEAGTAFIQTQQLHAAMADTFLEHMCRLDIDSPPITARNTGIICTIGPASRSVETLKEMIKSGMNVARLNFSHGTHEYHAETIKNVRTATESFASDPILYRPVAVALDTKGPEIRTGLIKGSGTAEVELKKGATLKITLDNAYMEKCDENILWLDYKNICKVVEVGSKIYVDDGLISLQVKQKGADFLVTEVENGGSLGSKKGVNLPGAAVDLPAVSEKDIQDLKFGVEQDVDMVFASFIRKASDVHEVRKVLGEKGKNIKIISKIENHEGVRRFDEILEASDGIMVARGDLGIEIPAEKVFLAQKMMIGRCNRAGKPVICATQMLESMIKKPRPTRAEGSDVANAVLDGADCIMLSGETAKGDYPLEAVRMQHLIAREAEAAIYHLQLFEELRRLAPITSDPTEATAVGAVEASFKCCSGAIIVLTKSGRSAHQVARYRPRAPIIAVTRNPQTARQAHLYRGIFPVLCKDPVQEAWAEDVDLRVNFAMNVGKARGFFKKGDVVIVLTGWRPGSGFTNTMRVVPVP
Protocol: Full length, human PKM2 enzyme was obtained from Promab (Richmond, Calif.). All reagents, unless otherwise noted, were obtained from Sigma (St. Louis, Mo.).
Compounds were pre-incubated with 2 nM PKM2 in reaction buffer (50 mM Tris-HCl, pH 8.0, 200 mM KCl, 30 mM MgCl2, 2 mM DTT, 5% DMSO) for 30 min at ambient temperature. […] After 30 min, ATP formation was measured by Kinase Glo (Promega, Madison, Wis.), and AC50 values were determined using Prism (GraphPad Software, Inc., La Jolla, Calif.).

[23] = biological target: T1, PKM2; assay: Cell-Based Pyruvate Kinase Activity Assay, A549; parameters: host or cells: A549 or NCI-H1299 lung cancer cells; settings: A549, 30 minutes with compound, n = 4; read-out: Cellular PKM2 activation EC50
Protocol: Cell-Based Pyruvate Kinase Activity Assay
A549 or NCI-H1299 lung cancer cells were plated at 20,000 cells per well (96-well plate) in MEM media plus 10% FBS, with no additional glutamine or pyruvate. Following overnight incubation, cells were washed with PBS followed by 4 hour incubation in MEM media. Compounds were added to the cells in 1% final concentration DMSO. After 30 minutes, cells were lysed, and pyruvate kinase activity in lysates was determined by Pyruvate Kinase Activity Assay (BioVision, Milpitas, Calif.). Maximum velocity values were calculated from the kinetic data, and AC50 values were determined using Prism GraphPad Software (La Jolla, Calif.). Compound washout experiments were as described above, except after a 30 minute incubation with Example 244 (469 nM), the cells were washed with PBS followed by the addition of MEM media for the indicated time period, lysed and pyruvate kinase activity determined. Results are tabulated in Table 3 and presented graphically in FIGS. 6A and 6B.
Target sequence in this assay (P14618 2-531 limits assumed): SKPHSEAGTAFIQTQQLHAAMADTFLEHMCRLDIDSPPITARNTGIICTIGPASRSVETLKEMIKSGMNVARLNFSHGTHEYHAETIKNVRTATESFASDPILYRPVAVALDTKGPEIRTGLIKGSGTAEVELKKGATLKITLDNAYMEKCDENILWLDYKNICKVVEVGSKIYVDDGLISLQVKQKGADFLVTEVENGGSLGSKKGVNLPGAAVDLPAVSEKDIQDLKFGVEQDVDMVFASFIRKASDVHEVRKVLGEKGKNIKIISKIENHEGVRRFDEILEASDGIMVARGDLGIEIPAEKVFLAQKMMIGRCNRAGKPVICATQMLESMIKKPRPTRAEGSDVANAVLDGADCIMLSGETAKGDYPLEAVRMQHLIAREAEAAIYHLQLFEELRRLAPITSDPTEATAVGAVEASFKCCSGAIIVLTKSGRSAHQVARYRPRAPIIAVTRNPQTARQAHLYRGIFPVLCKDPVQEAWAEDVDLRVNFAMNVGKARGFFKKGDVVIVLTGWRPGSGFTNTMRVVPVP

Structure (SMILES): O=C(c1cc(C(F)(F)F)n[nH]1)N(Cc1ccc(O)cc1F)CC1CCC1 [Example 1, N-(cyclobutylmethyl)-N-(2-fluoro-4-hydroxybenzyl)-3-(trifluoromethyl)-1H-pyrazole-5-carboxamide]
- IC50 [1]: > 30000 nM
- IC50 [2]: 2300 nM
- IC50 [3]: 100 nM
- IC50 [4]: > 30000 nM
- IC50 [5]: 80 nM
- IC50 [6]: > 30000 nM
- IC50 [7]: > 30000 nM
- IC50 [8]: 800 nM
- IC50 [9]: 600 nM
- IC50 [10]: 100 nM
- IC50 [11]: > 30000 nM
- IC50 [12]: 300 nM
- IC50 [13]: > 30000 nM
- IC50 [14]: 90 nM
- IC50 [15]: 5000 nM
- IC50 [16]: 20 nM
- IC50 [17]: 100 nM
- IC50 [18]: > 30000 nM
- IC50 [19]: > 30000 nM
- IC50 [20]: 200 nM
- IC50 [21]: > 30000 nM
- Max. Resp. ([22]; % maximum response in a biochemical assay as compared with Fructose 1,6-bisphosphate): 100%
- Emax ([22]; read-out: % FBP (extent of maximal activation, relative to FBP)): 104 ± 11%
- AC50 ([22]; read-out: AC50 (concentration of half-maximal PKM2 activation), Table 2, n = 6 to 10): 11 ± 4 nM
- AC50 ([22]; read-out: PKM2 AC50, 2 nM PKM2, 75 μM ADP, 15 μM PEP, Kinase Glo): 11 nM
- Maximal PKM2 activity ([22]; relative to activity in DMSO controls (normalized to 100%), FIG. 1B): approximately 600%
- EC50 [23]: 260 ± 120 nM
